Source: the NIST ThermoML archive (doi:10.1021/je2010209)
Numbers after ± are expanded uncertainties.

Assay: xn = mol fraction of the nth substance listed
Details: 101 kPa, Liquid; for mass density: Vibrating tube method; for speed of sound: Sing-around technique in a fixed-path interferometer

With COCCOCCO [2-(2-methoxyethoxy)ethanol] + CCCCn1cc[n+](C)c1.F[B-](F)(F)F the mass density (303.15 K, x2 = 0) was 1011.36 ± 0.86 kg/m3, the mass density (303.15 K, x2 = 0.0308) was 1022.02 ± 0.89 kg/m3 and the mass density (303.15 K, x2 = 0.1053) was 1046.36 ± 0.93 kg/m3. The mass density (303.15 K, x2 = 0.2065) was 1074.58 ± 0.99 kg/m3, the mass density (303.15 K, x2 = 0.3137) was 1098.6 ± 1 kg/m3 and the mass density (303.15 K, x2 = 0.4002) was 1114.55 ± 1.1 kg/m3. For the same compound, the mass density (303.15 K, x2 = 0.5035) was 1131.18 ± 1.1 kg/m3, the mass density (303.15 K, x2 = 0.6083) was 1146.73 ± 1.1 kg/m3 and the mass density (303.15 K, x2 = 0.7023) was 1160.08 ± 1.2 kg/m3. It also gave a mass density (303.15 K, x2 = 0.8291) of 1176.92 ± 1.2 kg/m3, a mass density (303.15 K, x2 = 0.9381) of 1189.62 ± 1.2 kg/m3 and a speed of sound (308.15 K, x2 = 0) of 1382 ± 5 m/s. The speed of sound (308.15 K, x2 = 0.0308) was 1395 ± 5 m/s, the speed of sound (308.15 K, x2 = 0.1053) was 1425 ± 5 m/s and the speed of sound (308.15 K, x2 = 0.2065) was 1453 ± 5 m/s. The speed of sound (308.15 K, x2 = 0.3137) was 1474 ± 5 m/s, the speed of sound (308.15 K, x2 = 0.4002) was 1490 ± 5 m/s and the speed of sound (308.15 K, x2 = 0.5035) was 1506 ± 5 m/s. For the same compound, the speed of sound (308.15 K, x2 = 0.6083) was 1517 ± 5 m/s, the speed of sound (308.15 K, x2 = 0.7023) was 1526 ± 5 m/s and the speed of sound (308.15 K, x2 = 0.8291) was 1534 ± 5 m/s. The speed of sound (308.15 K, x2 = 0.9381) was 1540 ± 5 m/s, the mass density (308.15 K, x2 = 0) was 1006.92 ± 0.85 kg/m3 and the mass density (308.15 K, x2 = 0.0308) was 1017.5 ± 0.88 kg/m3. It also gave a mass density (308.15 K, x2 = 0.1053) of 1042 ± 0.93 kg/m3, a mass density (308.15 K, x2 = 0.2065) of 1070.56 ± 0.98 kg/m3 and a mass density (308.15 K, x2 = 0.3137) of 1094.68 ± 1 kg/m3. For the same compound, the mass density (308.15 K, x2 = 0.4002) was 1110.65 ± 1.1 kg/m3, the mass density (308.15 K, x2 = 0.5035) was 1127.3 ± 1.1 kg/m3 and the mass density (308.15 K, x2 = 0.6083) was 1142.95 ± 1.1 kg/m3. The mass density (308.15 K, x2 = 0.7023) was 1156.36 ± 1.2 kg/m3, the mass density (308.15 K, x2 = 0.8291) was 1173.24 ± 1.2 kg/m3 and the mass density (308.15 K, x2 = 0.9381) was 1185.91 ± 1.2 kg/m3. It also gave a speed of sound (313.15 K, x2 = 0) of 1366 ± 5 m/s, a speed of sound (313.15 K, x2 = 0.0308) of 1378 ± 5 m/s and a speed of sound (313.15 K, x2 = 0.1053) of 1409 ± 5 m/s. It also gave a speed of sound (313.15 K, x2 = 0.2065) of 1437 ± 5 m/s, a speed of sound (313.15 K, x2 = 0.3137) of 1460 ± 5 m/s and a speed of sound (313.15 K, x2 = 0.4002) of 1477 ± 5 m/s. For the same compound, the speed of sound (313.15 K, x2 = 0.5035) was 1493 ± 5 m/s, the speed of sound (313.15 K, x2 = 0.6083) was 1505 ± 5 m/s and the speed of sound (313.15 K, x2 = 0.7023) was 1514 ± 5 m/s. The speed of sound (313.15 K, x2 = 0.8291) was 1523 ± 5 m/s, the speed of sound (313.15 K, x2 = 0.9381) was 1529 ± 5 m/s and the mass density (313.15 K, x2 = 0) was 1002.47 ± 0.84 kg/m3. For the same compound, the mass density (313.15 K, x2 = 0.0308) was 1013.14 ± 0.87 kg/m3, the mass density (313.15 K, x2 = 0.1053) was 1037.68 ± 0.92 kg/m3 and the mass density (313.15 K, x2 = 0.2065) was 1066.49 ± 0.98 kg/m3. It also gave a mass density (313.15 K, x2 = 0.3137) of 1090.91 ± 1 kg/m3, a mass density (313.15 K, x2 = 0.4002) of 1107.01 ± 1.1 kg/m3 and a mass density (313.15 K, x2 = 0.5035) of 1123.64 ± 1.1 kg/m3. It also gave a mass density (313.15 K, x2 = 0.6083) of 1139.19 ± 1.1 kg/m3, a mass density (313.15 K, x2 = 0.7023) of 1152.49 ± 1.2 kg/m3 and a mass density (313.15 K, x2 = 0.8291) of 1169.38 ± 1.2 kg/m3. For the same compound, the mass density (313.15 K, x2 = 0.9381) was 1182.2 ± 1.2 kg/m3, the speed of sound (318.15 K, x2 = 0) was 1349 ± 5 m/s and the speed of sound (318.15 K, x2 = 0.0308) was 1362 ± 5 m/s. It also gave a speed of sound (318.15 K, x2 = 0.1053) of 1393 ± 5 m/s, a speed of sound (318.15 K, x2 = 0.2065) of 1422 ± 5 m/s and a speed of sound (318.15 K, x2 = 0.3137) of 1447 ± 5 m/s. It also gave a speed of sound (318.15 K, x2 = 0.4002) of 1464 ± 5 m/s, a speed of sound (318.15 K, x2 = 0.5035) of 1480 ± 5 m/s and a speed of sound (318.15 K, x2 = 0.6083) of 1494 ± 5 m/s. For the same compound, the speed of sound (318.15 K, x2 = 0.7023) was 1503 ± 5 m/s, the speed of sound (318.15 K, x2 = 0.8291) was 1512 ± 5 m/s and the speed of sound (318.15 K, x2 = 0.9381) was 1519 ± 5 m/s. It also gave a mass density (318.15 K, x2 = 0) of 998.009 ± 0.83 kg/m3, a mass density (318.15 K, x2 = 0.0308) of 1008.9 ± 0.86 kg/m3 and a mass density (318.15 K, x2 = 0.1053) of 1033.44 ± 0.91 kg/m3. For the same compound, the mass density (318.15 K, x2 = 0.2065) was 1062 ± 0.97 kg/m3, the mass density (318.15 K, x2 = 0.3137) was 1086.38 ± 1 kg/m3 and the mass density (318.15 K, x2 = 0.4002) was 1102.75 ± 1.1 kg/m3. For the same compound, the mass density (318.15 K, x2 = 0.5035) was 1119.79 ± 1.1 kg/m3, the mass density (318.15 K, x2 = 0.6083) was 1135.51 ± 1.1 kg/m3 and the mass density (318.15 K, x2 = 0.7023) was 1148.84 ± 1.2 kg/m3. The mass density (318.15 K, x2 = 0.8291) was 1165.68 ± 1.2 kg/m3 and the mass density (318.15 K, x2 = 0.9381) was 1178.57 ± 1.2 kg/m3.
